The values below come from ChEMBL document CHEMBL2429789, “Discovery, Design, and Optimization of Isoxazole Azepine BET Inhibitors” (ACS Med Chem Lett, 2013).

Activity calls are given as the source filed them. The calls are words filed in the database; no cut-off is given here.

The target of series [1] is T1, Bromodomain-containing protein 4 (Homo sapiens, UniProt O60885). In words: Inhibition of His-FLAG-tagged BRD4 binding domain1 (unknown origin) binding to H4-TetraAc-biotin peptide after 20 mins by AlphaLISA. Background: Bead proximity is the source of the signal in Alpha formats.
In series [2] the target is T1, Bromodomain-containing protein 4. Description: Inhibition of BRD4 in human Raji cells assessed as reduction of MYC expression after 4 hrs. The series is classed as cell-based.
Series [3] can be described thus: Plasma protein binding in human. The series is classed as ADME, cell-free. To be noted: read-out: PPB (converted).
A short description of series [4]: AUC in mouse at 5 mg/kg, po. Format: ADME, organism-based. Also noted: dose 5 mg/kg, route oral. To be noted: plasma.
The nature of series [5]: Half life in rat at 1 mg/kg, iv. The series is classed as ADME, organism-based. Also noted: dose 1 mg/kg, route intravenous. Conditions: in vivo.
Series [6] is described as follows: Oral bioavailability in rat at 5 mg/kg. Conditions: in vivo. Format: ADME, organism-based.
A short description of series [7]: Volume of distribution at steady state in dog at 1 mg/kg, iv. Format: ADME, organism-based, Canis lupus familiaris. Set-up: dose 1 mg/kg, route intravenous. Conditions: in vivo, read-out: Vdss.
A short description of series [8]: Plasma protein binding in rat. Format: ADME, cell-free. To be noted: read-out: PPB (converted).
The nature of series [9]: Intrinsic clearance in rat liver microsomes. Format: ADME, Microsome. Conditions: read-out: CLH. On the technique in general: Liver microsomes are vesicles of endoplasmic reticulum, rich in cytochrome P450 enzymes.
Series [10] deals with Mus musculus. Description: Inhibition in MYC expression in tumor of NOD/SCID Harlan mouse xenografted with human Raji cells at 100 mg/kg, po. The series is classed as functional, organism-based. Set-up: dose 100 mg/kg. A general note: Xenograft models place foreign cells or tissue in a host animal.
The test system of series [11] is Mus musculus. Description: Inhibition of MYC expression in tumor of NOD/SCID Harlan mouse xenografted with human Raji cells at 100 mg/kg, po up to 8 hrs. Format: functional, organism-based. Set-up: dose 100 mg/kg.
For series [12], the system named is Mus musculus. Description: Inhibition of MYC expression in tumor of NOD/SCID Harlan mouse xenografted with human Raji cells at 100 mg/kg, po after 8 hrs relative to control. Set-up: dose 100 mg/kg. The series is classed as functional, organism-based.
The test system of series [13] is Mus musculus. Description: Inhibition in MYC expression in tumor of NOD/SCID Harlan mouse xenografted with human Raji cells at 100 mg/kg, po after 4 hrs. Format: functional.
The test system of series [14] is Mus musculus. Description: Inhibition in MYC expression in tumor of po dosed NOD/SCID Harlan mouse xenografted with human Raji cells. Format: functional, organism-based.
Series [15] can be described thus: Intrinsic clearance in dog liver microsomes. Format: ADME, Canis lupus familiaris, Microsome. To be noted: read-out: CLH.
Series [16] can be described thus: Intrinsic clearance in mouse liver microsomes. To be noted: read-out: CLH. The series is classed as ADME, Microsome.
For the next series, the system named is Rattus norvegicus. In words: […] clearance in rat at 1 mg/kg, iv. Format: ADME, organism-based. Also noted: dose 1 mg/kg, route intravenous. To be noted: in vivo.
For another series, the target named is CYP3A4 (Homo sapiens, UniProt P08684). In words: Inhibition of CYP3A4 (unknown origin) at 10 uM. The series is classed as ADME.
Series [17] in a line: Drug uptake in tumor of NOD/SCID Harlan mouse xenografted with human Raji cells at 100 mg/kg, po. The series is classed as ADME, organism-based, Neoplasm. Also noted: dose 100 mg/kg, route oral. To be noted: in vivo, read-out: Drug uptake.
The nature of series [18]: Intrinsic clearance in human liver microsomes. Format: ADME, Microsome. To be noted: read-out: CLH.
Series [19] can be described thus: Volume of distribution at steady state in rat at 1 mg/kg, iv. Format: ADME, organism-based. Set-up: dose 1 mg/kg, route intravenous. To be noted: in vivo, read-out: Vdss.
Series [20] is described as follows: Plasma protein binding in mouse. The series is classed as ADME, cell-free. Conditions: read-out: PPB (converted).
A short description of series [21]: Half life in dog at 1 mg/kg, iv. Conditions: in vivo. Set-up: dose 1 mg/kg, route intravenous. Format: ADME, organism-based, Canis lupus familiaris.
The nature of series [22]: AUC in rat at 5 mg/kg, po. Format: ADME, organism-based. Also noted: dose 5 mg/kg, route oral. To be noted: plasma.
The next series has as its system Canis familiaris. In words: Intrinsic clearance in dog at 1 mg/kg, iv. The series is classed as ADME, organism-based, Canis lupus familiaris. Conditions: in vivo. Also noted: dose 1 mg/kg, route intravenous.
The next series relates to Plasma. In words: Stability of the compound in rat plasma. The series is classed as ADME, cell-free.

Sequence of CYP3A4 (P08684 whole entry): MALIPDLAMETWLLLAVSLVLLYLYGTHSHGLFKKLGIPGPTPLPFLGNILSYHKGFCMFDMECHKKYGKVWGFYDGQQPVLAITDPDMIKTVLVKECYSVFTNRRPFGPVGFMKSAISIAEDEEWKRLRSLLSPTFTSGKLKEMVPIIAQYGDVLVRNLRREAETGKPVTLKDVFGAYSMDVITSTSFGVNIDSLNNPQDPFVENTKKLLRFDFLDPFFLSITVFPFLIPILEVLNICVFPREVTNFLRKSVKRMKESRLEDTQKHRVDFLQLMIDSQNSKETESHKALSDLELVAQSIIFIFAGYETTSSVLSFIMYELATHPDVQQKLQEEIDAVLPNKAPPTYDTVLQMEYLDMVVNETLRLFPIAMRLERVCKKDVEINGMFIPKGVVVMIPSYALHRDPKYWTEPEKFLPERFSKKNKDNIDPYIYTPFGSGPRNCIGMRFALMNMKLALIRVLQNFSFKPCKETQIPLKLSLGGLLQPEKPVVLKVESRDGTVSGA

Turning to `Cc1noc2c1-c1sc(C)c(C)c1C(c1ccc(Cl)cc1)=N[C@H]2CC(=O)OC(C)(C)C`, the IC50 in series [1] came to 290 nM; in series [2], 2100 nM.

Take `Cc1noc2c1-c1sc(C)c(C)c1C(c1ccc(Cl)cn1)=N[C@H]2CC(N)=O`: the figures for the half-inhibitory concentration (IC50) in series [1] and in [2] were 72 nM and 240 nM, respectively.

Take `Cc1noc2c1-c1sc(C)c(C)c1C(c1ccc(Cl)cc1)=N[C@H]2CC(N)=O`: the 50% inhibitory concentration (IC50) worked out at 26 nM in series [1] and 140 nM in series [2]. The values for the fraction unbound in [3], in series [8] and in series [20] were 0.006, 0.008 and 0.019, respectively. Further, the AUC in series [4] was 723 ng·h/mL; in series [22], 605 ng·h/mL. For the same molecule, the half-life in series [5] is 1.39 h; in series [21], 3 h. This molecule came in with a bioavailability in [6] of 31%. In addition, the Vd in series [7] was found to be 1.27 L/kg; in series [19], 2.45 L/kg. Further, the microsomal CLint in series [9] amounted to 27 µL/min/mg; in series [15], 11 µL/min/mg; in series [16], 140 µL/min/mg; in series [18], 5.5 µL/min/mg. The inhibition entry in the series on Mus musculus [10] and in the series on Mus musculus [11] was “Active” in each case. Moreover, in the series with Mus musculus [12], the inhibition entry is “inactive”. Further, in the series with Mus musculus [13], the inhibition in vivo at 100 mg/kg was determined as 75%. For the same molecule, the inhibition result with Mus musculus [14] was “Dose-dependent effect”. Also, the CL in the series with Rattus norvegicus turned out to be 46.2 mL/min/kg; in the series on Canis familiaris, 5.33 mL/min/kg. The same molecule gave an inhibition at 10 µM on CYP3A4 of 20%. In series [17], the concentration is 5 µM.

Regarding `Cc1noc2c1-c1sc(C)c(C)c1C(c1ccc(Cl)cc1)=N[C@H]2Cc1ncc[nH]1`, the IC50 in series [1] was determined as 200 nM; in series [2], 3600 nM.

As for `CCNC(=O)C[C@@H]1N=C(c2ccc(Cl)cc2)c2c(sc(C)c2C)-c2c(C)noc21`, the results for the IC50 in series [1] and in [2] were 36 nM and 320 nM, respectively.

Turning to `CC(=O)NC[C@@H]1N=C(c2ccc(Cl)cc2)c2c(sc(C)c2C)-c2c(C)noc21`, the half-inhibitory concentration (IC50) was determined as 190 nM in series [1] and 2200 nM in series [2].

For the molecule `Cc1noc2c1-c1sc(C)c(C)c1C(c1cccc(Cl)c1)=N[C@H]2CC(N)=O`, the IC50 in series [1] stood at 74 nM; in [2], 470 nM.

Consider `Cc1noc2c1-c1sc(C)c(C)c1C(c1ccc(N)nc1)=N[C@H]2CC(N)=O`, for which the IC50 is 73 nM in series [1] and 380 nM in series [2]. Moreover, the fraction unbound in series [3] is 0.006. In addition, the microsomal CLint in series [9] worked out at 18 µL/min/mg; in series [18], 5.4 µL/min/mg. Besides, the inhibition at 10 µM against CYP3A4 was found to be 20%. Moreover, the Stability entry with Plasma was “Unstable”.

For `Cc1noc2c1-c1sc(C)c(C)c1C(c1ccc(C#N)cc1)=N[C@H]2[C@@H](C)C(N)=O`, the IC50 was determined as 250 nM in series [1] and 710 nM in series [2].

On to `Cc1noc2c1-c1sc(C)c(C)c1C(N1CCOCC1)=N[C@H]2CC(N)=O`, for which the IC50 in series [1] is 1100 nM.

Consider `Cc1noc2c1-c1sc(C)c(C)c1C(c1ccccc1)=N[C@H]2CC(N)=O`, for which the IC50 was 29 nM in [1] and 180 nM in series [2]. Besides, in series [3], the fraction unbound is 0.018. Moreover, the microsomal CLint worked out at 160 µL/min/mg in series [9] and 2.4 µL/min/mg in series [18]. Besides, on CYP3A4, at 10 µM the inhibition was 1%. Further, the Stability entry in the series on Plasma was “Unstable”.

On to `CCCC1=N[C@@H](CC(N)=O)c2onc(C)c2-c2sc(C)c(C)c21`, for which the IC50 amounted to 300 nM in series [1] and 1500 nM in series [2].

Regarding `Cc1noc2c1-c1sc(C)c(C)c1C(c1ccccc1Cl)=N[C@H]2CC(N)=O`, the IC50 worked out at 250 nM in [1] and 1900 nM in series [2].

With `Cc1noc2c1-c1sc(C)c(C)c1C(c1ccc(Cl)cc1)=N[C@H]2Cc1nccs1`, the IC50 in series [1] stood at 190 nM; in series [2] it was 2100 nM.

The molecule `Cc1noc2c1-c1sc(C)c(C)c1C(C1CCOCC1)=N[C@H]2CC(N)=O` returned an IC50 in [1] of 6200 nM.

As for `CCNC(=O)C[C@H]1N=C(c2ccc(Cl)cc2)c2c(sc(C)c2C)-c2c(C)noc21`, the IC50 in series [1] turned out to be 2100 nM.

Take `COC(=O)NC[C@@H]1N=C(c2ccc(Cl)cc2)c2c(sc(C)c2C)-c2c(C)noc21`: the IC50 in series [1] stood at 86 nM; in series [2], 1900 nM.

On to `Cc1noc2c1-c1sc(C)c(C)c1C(c1ccc(C#N)cc1)=N[C@H]2CC(N)=O`, for which the results for the IC50 in series [1] and in [2] were 33 nM and 91 nM, respectively. Besides, in series [3], the fraction unbound was 0.041. The molecule also gave a half-life in series [5] of 0.393 h. This molecule returned a bioavailability in [6] of 44%. The microsomal CLint stood at 8.9 µL/min/mg in series [9] and 4.6 µL/min/mg in series [18]. The same molecule gave a CL in the series with Rattus norvegicus of 72.5 mL/min/kg. Besides, at CYP3A4, the inhibition at 10 µM amounted to 0%. In the series on Plasma, the Stability entry is listed as “Unstable”. Also, the Vd in series [19] stood at 2.22 L/kg. In series [22], the AUC was found to be 504 ng·h/mL.

With `Cc1noc2c1-c1sc(C)c(C)c1C(Cc1ccccc1)=N[C@H]2CC(N)=O`, the IC50 in [1] turned out to be 5700 nM.

In turn, `Cc1noc2c1-c1sc(C)c(C)c1C(c1cncnc1)=N[C@H]2CC(N)=O` registered an IC50 in series [1] of 2500 nM.

On to `Cc1noc(N)c1-c1ccccc1`, for which the IC50 in series [1] was 33000 nM.

For the molecule `Cc1cc(Cl)ccc1C1=N[C@@H](CC(N)=O)c2onc(C)c2-c2sc(C)c(C)c21`, the values for the IC50 in [1] and in series [2] were 42 nM and 160 nM, respectively.

A word on the IC50: it is the midpoint of a concentration-inhibition curve. What is called AUC is concentration integrated over time. A higher AUC goes with high exposure. By half-life is commonly meant the time in which the quantity being followed falls by half. A lower half-life goes with fast loss. The term bioavailability denotes dose-corrected exposure relative to a reference, in per cent. A high value points to good availability. One may read the inhibition as how much of the control response was suppressed. Usually inhibition in vivo stands for the relative decrease from the control value, in per cent.
